The record followed here is patent US20230111310A1, “CARBOXYLIC ACID DERIVATIVE-SUBSTITUTED IMINO ARYL COMPOUND, PREPARATION METHOD THEREFOR, HERBICIDAL COMPOSITION AND USE THEREOF” (Qingdao Kingagroot Chemical Compound Co., Ltd., priority 2020, published 2023).

Format in all cases: in vivo
The subject of data set [1] is Amaranthus retroflexus. Description: Weeding effect in post-emergence stage. Conditions: 7.5 g/ha, 3 weeks. The procedure, abridged:
(§1)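 Pot-grown greenhouse plants sprayed at 2–3 leaf stage, 2 weeks after sowing, with compound in acetone/Tween 80 plus methyl oleate emulsifiable concentrate (1.5 liter/ha) at 500–7.5 g/ha. Growth control rated 3 weeks after treatment; mean of three replicates.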

The subject of a further data set is Echinochloa crusgalli. Description: Weeding effect in post-emergence stage. Conditions: for Weeding effect in post-emergence stage, Echinochloa crusgalli: level of fresh weight growth control rate; for activity level (growth control rate) Echinochloa crusgalli: post-emergence, 7.5 g/ha, 3 weeks. The method in brief: as §1
For data set [2], the system named is Abutilon theophrasti. Description: Weeding effect in post-emergence stage. Conditions: level of fresh weight growth control rate. The method in brief: as §1
For a further data set, the system named is Digitaria sanguinalis. Nature of the data set: Weeding effect in post-emergence stage. Conditions: for Weeding effect in post-emergence stage, Digitaria sanguinalis: level of fresh weight growth control rate. The method in brief:
as §1

Data set [3] deals with Setaria viridis. Nature of the data set: Weeding effect in post-emergence stage. The settings on record: for Weeding effect in post-emergence stage, Setaria viridis: level of fresh weight growth control rate. The method in brief: as §1
In the next data set the test system is Alopecurus japonicus. Nature of the data set: Weeding effect in post-emergence stage. Conditions: for Weeding effect in post-emergence stage, Alopecurus japonicus: level of fresh weight growth control rate. The procedure, abridged: as §1
The next data set concerns Eleusine indica. Nature of the data set: Weeding effect in post-emergence stage. Conditions: for Weeding effect in post-emergence stage, Eleusine indica: level of fresh weight growth control rate; for activity level (growth control rate) Eleusine indica: post-emergence, 7.5 g/ha, 3 weeks. The procedure, abridged: as §1
Data set [4] deals with Amaranthus retroflexus. Description: Weeding effect in pre-emergence stage. The settings on record: 30 g/ha, 4 weeks. The procedure, abridged: (§2)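 Test compounds were dissolved in acetone with tween 80, diluted with water and sprayed right after sowing, with seeds covered by 0.5-2 cm of soil. Rates were 500 to 7.5 g/ha. Growth control was scored against activity-level criteria after 4 weeks in the greenhouse.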

The subject of data set [5] is Abutilon theophrasti. Description: Weeding effect in pre-emergence stage. The settings on record: 30 g/ha, 4 weeks. The method in brief: as §2
Data set [6] concerns Setaria viridis. Nature of the data set: Weeding effect in pre-emergence stage. Conditions: 30 g/ha, 4 weeks. The procedure, abridged: as §2
The next data set has as its system Capsella bursa-pastoris. Description: Weeding effect in pre-emergence stage. Conditions: 30 g/ha, 4 weeks. The method in brief: as §2
A further data set deals with Descurainia sophia. Nature of the data set: Weeding effect in pre-emergence stage. The settings on record: 30 g/ha, 4 weeks. The procedure, abridged: as §2
A further data set deals with Veronica didyma Tenore. Description: Weeding effect in pre-emergence stage. Conditions: 30 g/ha, 4 weeks. The method in brief: as §2
The subject of another data set is Soybeans. Nature of the data set: Pre-emergence stage, crop selectivity. The settings on record: 30 g/ha, 4 weeks. The method in brief:
as §2

The test system of the next data set is cotton. Description: Pre-emergence stage, crop selectivity. Conditions: 30 g/ha, 4 weeks. The method in brief:
as §2

The test system of a further data set is Peanut. Nature of the data set: Pre-emergence stage, crop selectivity. The settings on record: 30 g/ha, 4 weeks. The method in brief:
as §2

Another data set concerns corn. Description: Pre-emergence stage, crop selectivity. Conditions: 30 g/ha, 4 weeks. The procedure, abridged:
as §2

Setting [7] is: Dose 15 g/ha, fresh weight control rate level.

Consider `COC(=O)C(C)O/N=C/c1cc(-n2c(=O)cc(C(F)(F)F)n(C)c2=O)c(F)cc1Cl` (racemic) [Compound 194], for which the “activity level (growth control rate) Amaranthus retroflexus” value in the data set with Amaranthus retroflexus [1] is on record as 5 (Level 5: growth control rate is above 85%). Moreover, the “Weeding effect in post-emergence stage, Echinochloa crusgalli” value in the data set on Echinochloa crusgalli (Dose 7.5 g/ha) and in the data set with Echinochloa crusgalli (Dose 15 g/ha) was 5 (Level 5: growth control rate is above 85%) in each case. Besides, the “activity level (growth control rate) Echinochloa crusgalli” value with Echinochloa crusgalli is 4 (Level 4: growth control rate is greater than or equal to 60% and less than 85%). Besides, the “Weeding effect in post-emergence stage, Abutilon theophrasti” value (shortened to “Weeding effect … Abutilon theophrasti”) in the data set on Abutilon theophrasti [2] (Dose 7.5 g/ha) and in the data set with Abutilon theophrasti [2] (Dose 15 g/ha) was 5 (Level 5: growth control rate is above 85%) each time. For the same compound, the “Weeding effect in post-emergence stage, Digitaria sanguinalis” value with Digitaria sanguinalis (Dose 7.5 g/ha) and with Digitaria sanguinalis (Dose 15 g/ha) was 5 (Level 5: growth control rate is above 85%) in each case. Also, the “Weeding effect in post-emergence stage, Setaria viridis” value with Setaria viridis [3] (Dose 7.5 g/ha) and with Setaria viridis [3] (Dose 15 g/ha) was 5 (Level 5: growth control rate is above 85%) throughout. Moreover, the “Weeding effect in post-emergence stage, Alopecurus japonicus” value in the data set on Alopecurus japonicus (Dose 7.5 g/ha) is 4 (Level 4: growth control rate is greater than or equal to 60% and less than 85%); in the data set on Alopecurus japonicus (Dose 15 g/ha) it was 5 (Level 5: growth control rate is above 85%). Also, the “Weeding effect in post-emergence stage, Eleusine indica” value in the data set with Eleusine indica (Dose 7.5 g/ha) and in the data set with Eleusine indica (Dose 15 g/ha) was 5 (Level 5: growth control rate is above 85%) throughout. Further, the “activity level (growth control rate) Eleusine indica” value in the data set with Eleusine indica is 4 (Level 4: growth control rate is greater than or equal to 60% and less than 85%).

With `COC(=O)[C@@H](C)O/N=C/c1cc(-n2c(=O)n(C)c(=S)n(C)c2=O)c(F)cc1Cl` [1(R)], the “activity level (growth control rate) Amaranthus retroflexus” value in the data set on Amaranthus retroflexus [1] and with Amaranthus retroflexus [4] was 5 (Level 5: growth control rate is above 85%) throughout. For the same compound, in the data set with Echinochloa crusgalli (Dose 15 g/ha), the “Weeding effect in post-emergence stage, Echinochloa crusgalli” value was 5 (Level 5: growth control rate is above 85%). Also, the “activity level (growth control rate) Echinochloa crusgalli” value in the data set with Echinochloa crusgalli is 4 (Level 4: growth control rate is greater than or equal to 60% and less than 85%). In the data set with Abutilon theophrasti [2] (Dose 15 g/ha), the “Weeding effect … Abutilon theophrasti” value was 5 (Level 5: growth control rate is above 85%). The “Weeding effect in post-emergence stage, Digitaria sanguinalis” value with Digitaria sanguinalis (Dose 15 g/ha) is 5 (Level 5: growth control rate is above 85%). Moreover, the “Weeding effect in post-emergence stage, Setaria viridis” value with Setaria viridis [3] (Dose 15 g/ha) is recorded as 5 (Level 5: growth control rate is above 85%). In addition, the “Weeding effect in post-emergence stage, Alopecurus japonicus” value in the data set on Alopecurus japonicus (Dose 15 g/ha) was 5 (Level 5: growth control rate is above 85%). In addition, the “Weeding effect in post-emergence stage, Eleusine indica” value in the data set on Eleusine indica (Dose 15 g/ha) was 5 (Level 5: growth control rate is above 85%). Besides, the “activity level (growth control rate) Eleusine indica” value in the data set on Eleusine indica is 5 (Level 5: growth control rate is above 85%). Further, the “activity level (growth control rate) Abutilon theophrasti” value in the data set on Abutilon theophrasti [5] is reported as 5 (Level 5: growth control rate is above 85%). For the same compound, the “activity level (growth control rate) Setaria viridis” value in the data set on Setaria viridis [6] is recorded as 5 (Level 5: growth control rate is above 85%). Further, the “activity level (growth control rate) Capsella bursa-pastoris” value with Capsella bursa-pastoris is on record as 5 (Level 5: growth control rate is above 85%). Moreover, the “activity level (growth control rate) Descurainia sophia” value in the data set on Descurainia sophia is reported as 5 (Level 5: growth control rate is above 85%). Further, the “activity level (growth control rate) Veronica didyma Tenore” value in the data set on Veronica didyma Tenore is 5 (Level 5: growth control rate is above 85%). In addition, in the data set on Soybeans, the “plant damage level Soybeans” value is on record as 0 (Level 0: growth control rate is less than 5%). Further, the “plant damage level Cotton” value with cotton is 0 (Level 0: growth control rate is less than 5%). Moreover, the “plant damage level Peanut” value in the data set with Peanut was 0 (Level 0: growth control rate is less than 5%). Besides, the “plant damage level Corn” value with corn is recorded as 0 (Level 0: growth control rate is less than 5%).

In the case of `COC(=O)C(C)O/N=C/c1cc(-n2c(=O)n(C)c(=S)n(C)c2=O)c(F)cc1Cl` (stereo not drawn) [Compound 1], the “activity level (growth control rate) Amaranthus retroflexus” value in the data set with Amaranthus retroflexus [1] was 3 (Level 3: growth control rate is greater than or equal to 40% and less than 60%). In addition, the “Weeding effect in post-emergence stage, Echinochloa crusgalli” value with Echinochloa crusgalli (Dose 15 g/ha) is reported as 5 (Level 5: growth control rate is above 85%). Besides, the “activity level (growth control rate) Echinochloa crusgalli” value in the data set with Echinochloa crusgalli is 3 (Level 3: growth control rate is greater than or equal to 40% and less than 60%). The “Weeding effect … Abutilon theophrasti” value in the data set with Abutilon theophrasti [2] (Dose 15 g/ha) is listed as 5 (Level 5: growth control rate is above 85%). Further, the “Weeding effect in post-emergence stage, Digitaria sanguinalis” value in the data set with Digitaria sanguinalis (Dose 15 g/ha) is 5 (Level 5: growth control rate is above 85%). In addition, the “Weeding effect in post-emergence stage, Setaria viridis” value with Setaria viridis [3] (Dose 15 g/ha) is 5 (Level 5: growth control rate is above 85%). Moreover, the “Weeding effect in post-emergence stage, Alopecurus japonicus” value in the data set with Alopecurus japonicus (Dose 15 g/ha) is reported as 5 (Level 5: growth control rate is above 85%). Moreover, the “Weeding effect in post-emergence stage, Eleusine indica” value in the data set on Eleusine indica (Dose 15 g/ha) is 5 (Level 5: growth control rate is above 85%). Besides, the “activity level (growth control rate) Eleusine indica” value in the data set on Eleusine indica was 3 (Level 3: growth control rate is greater than or equal to 40% and less than 60%).

With `COC(=O)CO/N=C/c1cc(-n2c(=O)cc(C(F)(F)F)n(C)c2=O)c(F)cc1Cl` [Control compound D, reference compound], the “activity level (growth control rate) Amaranthus retroflexus” value in the data set with Amaranthus retroflexus [1] was 2 (Level 2: growth control rate is greater than or equal to 20% and less than 40%). Also, the “Weeding effect in post-emergence stage, Echinochloa crusgalli (level)” value with Echinochloa crusgalli (setting [7]) was 4 (Level 4: growth control rate is greater than or equal to 60% and less than 85%). Besides, in the data set on Echinochloa crusgalli, the “activity level (growth control rate) Echinochloa crusgalli” value is 1 (Level 1: growth control rate is greater than or equal to 5% and less than 20%). Further, in the data set with Digitaria sanguinalis (setting [7]), the “Weeding effect in post-emergence stage, Digitaria sanguinalis (level)” value is 3 (Level 3: growth control rate is greater than or equal to 40% and less than 60%). For the same compound, the “Weeding effect in post-emergence stage, Setaria viridis (level)” value in the data set with Setaria viridis [3] (setting [7]) was 3 (Level 3: growth control rate is greater than or equal to 40% and less than 60%). Moreover, the “Weeding effect in post-emergence stage, Alopecurus japonicus (level)” value in the data set with Alopecurus japonicus (setting [7]) was 2 (Level 2: growth control rate is greater than or equal to 20% and less than 40%). Moreover, the “Weeding effect in post-emergence stage, Eleusine indica (level)” value in the data set on Eleusine indica (setting [7]) is 3 (Level 3: growth control rate is greater than or equal to 40% and less than 60%). Besides, in the data set with Eleusine indica, the “activity level (growth control rate) Eleusine indica” value is 2 (Level 2: growth control rate is greater than or equal to 20% and less than 40%).
